From patent US10973789B2, “Compositions and methods for treating skin conditions using light and polycarboxylic acids” (Johnson & Johnson Consumer Inc., priority 2017, dated 2021)
Like-named read-outs stand apart in the source and are kept apart here.

System: Propionibacterium acnes ATCC 6919
Procedure: The sample is then recovered onto agar and incubated 5-7 days until clear colonies are visible. […] The anti-P. acnes activity of various test treatments were compared. Anti-P. acnes activity was measured using the in vitro method described above. The test treatments comprised either 0.1 or 0.25 weight percent of succinic acid in reinforced clostridial media with and without the administration of 440 nm blue light. […] Non-control test samples were adjusted to a pH of 4.5.

With `O=C(O)CCC(=O)O` [Succinic Acid, Succinic acid (butanedioic acid)] the “antimicrobial activity of the combination relative to the expected additive reduction” value (0.1% succinic acid + light: 6.7 log reduction vs additive 2.6 log reduction) was “about 12,000 times”, the “reduction of P. acnes bacterial count” value (0.1% succinic acid combined with light) was 6.7 logs and the “Log 10 reduction vs Control Solution” value (0.1% succinic acid in reinforced clostridial media, pH 4.5, no light) was 2.0 Log 10. For the same compound, the “reduction of P. acnes bacterial count” value (0.1% succinic acid, no light, compared to untreated control solution) was 2 logs, the “Log 10 reduction vs Control Solution” value (0.1% succinic acid, pH 4.5, + 440 nm blue light) was greater than 6.7 Log 10 and the “antimicrobial activity of the combination relative to the expected additive reduction” value (0.25% succinic acid + light: 6.7 log reduction vs additive 6.2 log reduction) was “about 3 times”. The “reduction of P. acnes bacterial count” value (0.25% succinic acid combined with light) was 6.7 logs, the “Log 10 reduction vs Control Solution” value (0.25% succinic acid in reinforced clostridial media, pH 4.5, no light) was 5.6 Log 10 and the “reduction of P. acnes bacterial count” value (0.25% succinic acid, no light, compared to untreated control solution) was 5.6 logs. The “Log 10 reduction vs Control Solution” value (0.25% succinic acid, pH 4.5, + 440 nm blue light) was greater than 6.7 Log 10.
